The record followed here is US20240343704A1, “HALO-SUBSTITUTED AMINO PYRIDINE COMPOUNDS AS INHIBITORS OF THE HAEMATOPOIETIC PROGENITOR KINASE 1 (HPK1)” (priority 2021, published 2024).

Molecules are shown by their SMILES. Counter-ions that a name gives are not always drawn. Like-named read-outs stand apart in the source and are kept apart here.

In assay [1] the target is T1, Recombinant (1-346) HPK1 (h) (Homo sapiens, UniProt Q92918).
T1 construct: Recombinant (1-346) HPK1 (h) is incubated with 8 mM MOPS pH 7.0
T1 sequence (Q92918 1-346): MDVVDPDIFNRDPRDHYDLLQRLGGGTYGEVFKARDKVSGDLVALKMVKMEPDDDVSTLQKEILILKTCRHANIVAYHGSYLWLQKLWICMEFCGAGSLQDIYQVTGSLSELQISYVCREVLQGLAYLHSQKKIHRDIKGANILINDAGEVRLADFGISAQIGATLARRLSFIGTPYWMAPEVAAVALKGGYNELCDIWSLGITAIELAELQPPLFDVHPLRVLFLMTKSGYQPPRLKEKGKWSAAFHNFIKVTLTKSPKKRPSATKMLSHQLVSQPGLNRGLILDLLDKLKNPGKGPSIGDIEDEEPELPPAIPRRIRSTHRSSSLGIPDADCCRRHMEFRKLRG
In words: HPK1 Human STE Kinase Enzymatic Radiometric Assay. Type of assay: biochemical. On the procedure:
A stock solution of 10 mM of test compound is prepared in DMSO. The compound plate was prepared by 3-fold and 9-point serial dilutions. […] The reaction is initiated by The addition of the Mg/ATP mix. After incubation for 40 minutes at RT, the reaction is stopped by the addition of phosphoric acid to a concentration of 0.5%.

A further assay deals with Lck (h) (Homo sapiens, UniProt P06239). In words: Lck Human  Kinase Enzymatic Radiometric Assay. It is filed as biochemical. The essentials: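 Substrate 33P-incorporation measured by scintillation counting after spotting on P30 filtermat and phosphoric acid washes. Human Lck reacted 40 min at RT in 50 mM Tris pH 7.5 with 10 mM MgAcetate, [gamma-33P]-ATP, 250 uM Cdc2 peptide, 0.1 mM EGTA and 0.1 mM Na3VO4.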
Chain of Lck (h) (P06239 whole entry): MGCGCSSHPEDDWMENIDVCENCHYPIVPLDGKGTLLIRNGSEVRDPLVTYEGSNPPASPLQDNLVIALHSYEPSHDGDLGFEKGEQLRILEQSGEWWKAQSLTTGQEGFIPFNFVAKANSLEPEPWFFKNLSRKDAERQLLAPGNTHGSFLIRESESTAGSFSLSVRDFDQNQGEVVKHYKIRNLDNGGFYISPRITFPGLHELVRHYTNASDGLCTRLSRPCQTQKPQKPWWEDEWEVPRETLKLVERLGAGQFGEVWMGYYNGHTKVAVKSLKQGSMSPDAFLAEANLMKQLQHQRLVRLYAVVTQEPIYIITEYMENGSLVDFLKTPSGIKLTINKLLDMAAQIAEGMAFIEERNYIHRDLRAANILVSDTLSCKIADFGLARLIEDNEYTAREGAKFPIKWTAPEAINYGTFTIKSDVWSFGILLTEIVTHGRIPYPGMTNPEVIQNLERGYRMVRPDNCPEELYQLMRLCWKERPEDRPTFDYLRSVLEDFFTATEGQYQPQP

For the compound `Nc1nc(F)c(-c2ccc(N3CCOCC3)c(CN3CCC3)c2F)cc1-c1ccc2c(c1)CCNC2=O` [I-609, 6-(2-amino-5-(3-(azetidin-1-ylmethyl)-2-fluoro-4-morpholinophenyl)-6-fluoropyridin-3-yl)-3,4-dihydroisoquinolin-1(2H)-one], the IC50 in assay [1] (read-out: HPK1 IC50 nM Range*) was 11 to 100 nM; on Lck (h) (read-out: Lck IC50 nM Range*) it was over 1000 nM.

As to `COCCN1CCC(c2ccc(-c3cc(-c4ccc5c(c4)CCNC5=O)c(N)nc3Cl)cc2)CC1` [I-166, 6-(2-amino-6-chloro-5-(4-(1-(2-methoxyethyl)piperidin-4-yl)phenyl)pyridin-3-yl)-3,4-dihydroisoquinolin-1(2H)-one], the IC50 in assay [1] (read-out: HPK1 IC50 nM Range*) is 11 to 100 nM; on Lck (h) (read-out: Lck IC50 nM Range*) it was over 1000 nM.

As to `CN1C[C@H]2C[C@@]2(c2ccc(-c3cc(-c4cc5c(cc4F)C(=O)NCC5)c(N)nc3F)cc2)C1` [I-343, 6-(2-amino-6-fluoro-5-(4-((1R,5S)-3-methyl-3-azabicyclo[3.1.0]hexan-1-yl)phenyl)pyridin-3-yl)-7-fluoro-3,4-dihydroisoquinolin-1(2H)-one], the IC50 was 0.1 to 10 nM in assay [1] (read-out: HPK1 IC50 nM Range*) and over 1000 nM at Lck (h) (read-out: Lck IC50 nM Range*).

Take `COCCN1CCC(Oc2ccc(-c3cc(-c4ccc5c(c4)CCNC5=O)c(N)nc3F)cc2C#N)CC1` [I-217, 5-(6-amino-2-fluoro-5-(1-oxo-1,2,3,4-tetrahydroisoquinolin-6-yl)pyridin-3-yl)-2-((1-(2-methoxyethyl)piperidin-4-yl)oxy)benzonitrile]: the concentration for half-maximal inhibition (IC50) in assay [1] (read-out: HPK1 IC50 nM Range*) was 0.1 to 10 nM; on Lck (h) (read-out: Lck IC50 nM Range*), over 1000 nM.

On to `CCN1CCOC(c2ccc(-c3cc(-c4ccc5c(c4)CCNC5=O)c(N)nc3F)cc2)C1` (centres unmarked) [I-102, 6-(2-amino-5-(4-(4-ethylmorpholin-2-yl)phenyl)-6-fluoropyridin-3-yl)-3,4-dihydroisoquinolin-1(2H)-one], for which the half-inhibitory concentration (IC50) in assay [1] (read-out: HPK1 IC50 nM Range*) is 11 to 100 nM; on Lck (h) (read-out: Lck IC50 nM Range*), over 1000 nM.

With `CN1CCN(c2ccc(-c3cc(-c4ccc5c(c4)CNC5=O)c(N)nc3F)cc2)CC1` [I-32, 5-(2-amino-6-fluoro-5-(4-(4-methylpiperazin-1-yl)phenyl)pyridin-3-yl)isoindolin-1-one], the figures for the IC50 (in assay [1] (read-out: HPK1 IC50 nM Range*); on Lck (h) (read-out: Lck IC50 nM Range*)) were 11 to 100 nM and over 1000 nM, respectively.

Consider `Nc1nc(F)c(-c2cnn(C3CCOCC3)c2)cc1-c1ccc2c(c1)CCNC2=O` [I-55, 6-(2-amino-6-fluoro-5-(1-(tetrahydro-2H-pyran-4-yl)-1H-pyrazol-4-yl)pyridin-3-yl)-3,4-dihydroisoquinolin-1(2H)-one], for which the IC50 in assay [1] (read-out: HPK1 IC50 nM Range*) is 0.1 to 10 nM; at Lck (h) (read-out: Lck IC50 nM Range*), over 1000 nM.

On to `COCCN1CCC(Oc2ccc(-c3cc(-c4cc5c(cc4F)C(=O)NCC5)c(N)nc3F)cc2C#N)CC1` [I-303, 5-(6-amino-2-fluoro-5-(7-fluoro-1-oxo-1,2,3,4-tetrahydroisoquinolin-6-yl)pyridin-3-yl)-2-((1-(2-methoxyethyl)piperidin-4-yl)oxy)benzonitrile], for which the IC50 in assay [1] (read-out: HPK1 IC50 nM Range*) is 11 to 100 nM; on Lck (h) (read-out: Lck IC50 nM Range*), over 1000 nM.

As for `Nc1nc(F)c(-c2ccc(N3CCN4CCOC[C@@H]4C3)cc2)cc1-c1ccc2c(c1)CCNC2=O` [I-39, (S)-6-(2-amino-6-fluoro-5-(4-(hexahydropyrazino[2,1-c][1,4]oxazin-8(1H)-yl)phenyl)pyridin-3-yl)-3,4-dihydroisoquinolin-1(2H)-one], the values for the IC50 (in assay [1] (read-out: HPK1 IC50 nM Range*); on Lck (h) (read-out: Lck IC50 nM Range*)) were 0.1 to 10 nM and over 1000 nM, respectively.

Turning to `CC(C)N1CCC(Oc2ccc(-c3cc(-c4ccc5c(c4)CCNC5=O)c(N)nc3F)cc2)CC1` [I-267, 6-(2-amino-6-fluoro-5-(4-((1-isopropylpiperidin-4-yl)oxy)phenyl)pyridin-3-yl)-3,4-dihydroisoquinolin-1(2H)-one], the half-inhibitory concentration (IC50) in assay [1] (read-out: HPK1 IC50 nM Range*) is 0.1 to 10 nM; on Lck (h) (read-out: Lck IC50 nM Range*), over 1000 nM.

Take `CC(C)N1CCN(c2ccc(-c3cc(-c4ccc5c(=O)[nH]cc(F)c5c4)c(N)nc3F)cc2)CC1` [I-379, 6-(2-amino-6-fluoro-5-(4-(4-isopropylpiperazin-1-yl)phenyl)pyridin-3-yl)-4-fluoroisoquinolin-1(2H)-one]: the IC50 in assay [1] (read-out: HPK1 IC50 nM Range*) was 0.1 to 10 nM; at Lck (h) (read-out: Lck IC50 nM Range*), over 1000 nM.

With `Nc1nc(F)c(-c2ccc(N3CCN(CC4CC4)CC3)cc2)cc1-c1cc2cc[nH]c(=O)c2cc1F` [I-376, 6-(2-amino-5-(4-(4-(cyclopropylmethyl)piper-azin-1-yl)phenyl)-6-fluoropyridin-3-yl)-7-fluoroisoquinolin-1(2H)-one], the IC50 was 0.1 to 10 nM in assay [1] (read-out: HPK1 IC50 nM Range*) and over 1000 nM on Lck (h) (read-out: Lck IC50 nM Range*).

Take `Nc1nc(F)c(-c2ccc([C@]34C[C@H]3CN(CC3CC3)C4)cc2)cc1-c1cc(F)c2c(c1)CCNC2=O` [I-320, 6-(2-amino-5-(4-((1S,5R)-3-(cyclopropylmethyl)-3-azabicyclo[3.1.0]hexan-1-yl)phenyl)-6-fluoropyridin-3-yl)-8-fluoro-3,4-dihydroisoquinolin-1(2H)-one formate]: the IC50 in assay [1] (read-out: HPK1 IC50 nM Range*) lay in the range of 0.1 to 10 nM; at Lck (h) (read-out: Lck IC50 nM Range*), 101 to 1000 nM.

In the case of `CC(C)N1CCN(c2ccc(-c3cc(-c4cc(N)c5c(c4)CCNC5=O)c(N)nc3F)cc2)CC1` [I-357, 8-amino-6-(2-amino-6-fluoro-5-(4-(4-isopropylpiperazin-1-yl)phenyl)pyridin-3-yl)-3,4-dihydroisoquinolin-1(2H)-one], the 50% inhibitory concentration (IC50) (in assay [1] (read-out: HPK1 IC50 nM Range*); at Lck (h) (read-out: Lck IC50 nM Range*)) was 101 to 1000 nM each time.

As for `CN(C)Cc1cc(-c2cc(-c3ccc4c(c3)CCNC4=O)c(N)nc2F)ccc1N1CCOCC1` [I-432, 6-(2-amino-5-(3-((dimethylamino)methyl)-4-morpholinophenyl)-6-fluoropyridin-3-yl)-3,4-dihydroisoquinolin-1(2H)-one], the values for the concentration for half-maximal inhibition (IC50) (in assay [1] (read-out: HPK1 IC50 nM Range*); on Lck (h) (read-out: Lck IC50 nM Range*)) were 0.1 to 10 nM and over 1000 nM, respectively.

Turning to `CC(=O)N1CCC2(CC1)OCc1cc(-c3cc(-c4ccc5c(c4)CCNC5=O)c(N)nc3F)ccc1O2` [I-191, 6-(5-(1′-acetyl-4H-spiro[benzo[d][1,3]dioxine-2,4′-piperidin]-6-yl)-2-amino-6-fluoropyridin-3-yl)-3,4-dihydroisoquinolin-1(2H)-one], the half-maximal inhibitory concentration (IC50) in assay [1] is 0.1 to 10 nM; at Lck (h), over 1000 nM.

For `Nc1nc(F)c(-c2ccc(OCC3CC3)cc2)cc1-c1cc2c(cc1F)C(=O)NCC2` [I-316, 6-(2-amino-5-(4-(cyclopropylmethoxy)phenyl)-6-fluoropyridin-3-yl)-7-fluoro-3,4-dihydroisoquinolin-1(2H)-one], the IC50 was 11 to 100 nM in assay [1] (read-out: HPK1 IC50 nM Range*) and over 1000 nM on Lck (h) (read-out: Lck IC50 nM Range*).

Turning to `CN1CC=C(c2ccc(-c3cc(-c4cc5c(cc4F)C(=O)NCC5)c(N)nc3Cl)cc2)CC1` [I-232, 6-(2-amino-6-chloro-5-(4-(1-methyl-1,2,3,6-tetrahydropyridin-4-yl)phenyl)pyridin-3-yl)-7-fluoro-3,4-dihydroisoquinolin-1(2H)-one], the half-inhibitory concentration (IC50) is 11 to 100 nM in assay [1] (read-out: HPK1 IC50 nM Range*) and over 1000 nM at Lck (h) (read-out: Lck IC50 nM Range*).

In the case of `Nc1nc(F)c(-c2ccc(OC3CCN(CCCC(F)(F)F)CC3)cc2)cc1-c1ccc2c(c1)CCNC2=O` [I-188, 6-(2-amino-6-fluoro-5-(4-((1-(4,4,4-trifluorobutyl)piperidin-4-yl)oxy)phenyl)pyridin-3-yl)-3,4-dihydroisoquinolin-1(2H)-one], the half-inhibitory concentration (IC50) was 0.1 to 10 nM in assay [1] (read-out: HPK1 IC50 nM Range*) and over 1000 nM at Lck (h) (read-out: Lck IC50 nM Range*).

For `Cc1c[nH]c(=O)c2ccc(-c3cc(-c4ccc(N5CCN(C(C)C)CC5)cc4)c(F)nc3N)cc12` [I-378, 6-(2-amino-6-fluoro-5-(4-(4-isopropylpiperazin-1-yl)phenyl)pyridin-3-yl)-4-methylisoquinolin-1(2H)-one], the IC50 in assay [1] (read-out: HPK1 IC50 nM Range*) is 0.1 to 10 nM; on Lck (h) (read-out: Lck IC50 nM Range*) it was over 1000 nM.

As for `CC(C)N1CCC(c2ccc(-c3cc(-c4cc(F)c5c(c4)CCNC5=O)c(N)nc3F)cc2)CC1` [I-302, 6-(2-amino-6-fluoro-5-(4-(1-isopropylpiperidin-4-yl)phenyl)pyridin-3-yl)-8-fluoro-3,4-dihydroisoquinolin-1(2H)-one], the half-inhibitory concentration (IC50) lay in the range of 0.1 to 10 nM in assay [1] (read-out: HPK1 IC50 nM Range*) and 101 to 1000 nM at Lck (h) (read-out: Lck IC50 nM Range*).

With `Nc1nc(F)c(-c2cc3n(n2)CC(=O)NCC3)cc1-c1ccc2c(c1)CCNC2=O` [I-229, 2-(6-amino-2-fluoro-5-(1-oxo-1,2,3,4-tetrahydroisoquinolin-6-yl)pyridin-3-yl)-5,6-dihydro-4H-pyrazolo[1,5-d][1,4]diazepin-7(8H)-one], the half-inhibitory concentration (IC50) in assay [1] (read-out: HPK1 IC50 nM Range*) was 11 to 100 nM; on Lck (h) (read-out: Lck IC50 nM Range*), over 1000 nM.

For the compound `Nc1nc(F)c(-c2ccc(S(=O)(=O)C3CCNCC3)cc2)cc1-c1ccc2c(c1)CCNC2=O` [I-128, 6-(2-amino-6-fluoro-5-(4-(piperidin-4-ylsulfonyl)phenyl)pyridin-3-yl)-3,4-dihydroisoquinolin-1(2H)-one], the IC50 in assay [1] (read-out: HPK1 IC50 nM Range*) is 11 to 100 nM; on Lck (h) (read-out: Lck IC50 nM Range*), over 1000 nM.

Consider `CC(C)[C@H]1CN(c2ccc(-c3cnc(N)c(-c4ccc5c(c4)CCNC5=O)c3F)c(F)c2)CCO1` [I-7, (S)-6-(2-amino-4-fluoro-5-(2-fluoro-4-(2-isopropylmorpholino)phenyl)pyridin-3-yl)-3,4-dihydroisoquinolin-1(2H)-one], for which the IC50 in assay [1] (read-out: HPK1 IC50 nM Range*) was 101 to 1000 nM; on Lck (h) (read-out: Lck IC50 nM Range*), over 1000 nM.

`C[C@@H]1CCCN1c1ccc(-c2cc(-c3ccc4c(c3)CCNC4=O)c(N)nc2F)c(F)c1` [I-47, (R)-6-(2-amino-6-fluoro-5-(2-fluoro-4-(2-methylpyrrolidin-1-yl)phenyl)pyridin-3-yl)-3,4-dihydroisoquinolin-1(2H)-one]: the half-inhibitory concentration (IC50) in assay [1] (read-out: HPK1 IC50 nM Range*) is 11 to 100 nM; on Lck (h) (read-out: Lck IC50 nM Range*), over 1000 nM.
